Results from patent US20240067702A1, “LACTAM-MODIFIED P[…]” (DONGBAO PURPLE STAR (HANGZHOU) BIOPHARMACEUTICAL CO., LTD., priority 2020, published 2024).
*1 amine or outer side, *2 acyl side, *3 side chain or, on linkers, in order; H or OH if unused. Where a SMILES comes first, the peptide text is derived from it. Bridges are numbered along the chain shown (N, C = ends). Side-chain parts run from the residue outwards. [ ]: non-standard residue; d: D form. The star is where a group is joined. C20 diacid = O=C(O)CCCCCCCCCCCCCCCCCCC(=O)*; γGlu = O=C(O)[C@H](CCC(=O)[*:2])N[*:1]; AEEA = NCCOCCOCC(=O)O; Aib = CC(C)(N)C(=O)O

What was measured:
human plasma albumin = assay: Plasma protein binding (PPB) test, human; format: in vitro ADME; parameters: key: NA means the plasma-protein binding is too high, and no free drug can be detected under a normal concentration of plasma protein; conditions: ultracentrifugation
Description: (§1) To study the binding of the test compounds to human/mouse plasma albumin.
(§2) 1. Matrix preparation: On the day of the experiment, the plasma was thawed in cold water and centrifuged at 3220 rpm for 5 min to remove all blood clots. The pH of the obtained plasma was measured and adjusted to 7.4±0.1 using 1% phosphoric acid or 1N sodium hydroxide as needed.
(§3) 2. Dilution steps of the test compounds: The test compounds were dissolved in dimethyl sulfoxide (DMSO) to prepare stock solutions at concentrations of 10 mM and 2 mM, respectively. A 40 μM working solution was prepared by diluting 2 μL of the stock solution (2 mM) with 98 μL of DMSO. A 400 μM working solution of the control compound was prepared by diluting 10 μL of the stock solution with 240 μL of DMSO. The working solution of the compound (5 μL) was mixed with the blank matrix (995 μL) at a ratio of 1:200 to prepare the loading matrix.
3.1 An equal amount of 30 μL of the loading matrix (n=2) was transferred to the sample collection plate to prepare samples of time 0 (TO) for residue determination. The samples were immediately matched to the corresponding blank buffer in a final volume of 60 μL with a 1:1 volume ratio of plasma to buffer in each well. Then, 60 μL of 4% H3PO4 in H2O and 480 μL of stop solution containing an internal standard were then added to the TO samples of the test compounds. […]

[1] = Kidney homogenate stability (BHS) test; format: in vitro ADME; conditions: normal mouse kidney homogenate, 37° C.; read-out: BHS (T1/2 (min))
Description: To study the stability of the test compounds in normal mouse kidney homogenate.
1. Before the experiment, the frozen kidney homogenate was thawed in a 37° C. water bath.
2. Test compounds: 10 mM stock solution was diluted with DMSO to prepare 1 mM intermediate solution;
3. test compounds: 1 mM intermediate solution was diluted with DMSO to prepare 50 μM dosing solution;
4. at each time point (0, 10, 30, 60, 120, 180, 240 min), 100 μL of 4% H3PO4 and 800 μL of stop solution were added to precipitate the protein, and mixed thoroughly.
5. The samples were centrifuged at 4000 rpm for 10 min, and 100 μL of supernatant was taken from each well to the plate. The samples were shaken at 800 rpm for approximately 10 min before submitting for LC-MS/MS test.

[2] = Pharmacokinetic evaluation in C57BL/6 mice; format: in vivo; conditions: mouse, plasma, 0.048 mg/kg
Description: To test the pharmacokinetics of compounds in C57BL/6 mice in vivo
The pharmacokinetic characteristics of the compounds in rodents after intravenous injection and subcutaneous injection were tested according to the standard protocol. In the experiment, the candidate compounds were formulated into clear solutions, and a single intravenous injection (IV, 0.048 mpk) and subcutaneous injection (SC, 0.048 mpk) were given to the mice. The vehicle for intravenous injection was PBS buffer (pH=7), and the vehicle for subcutaneous injection was citrate buffer (20 mM, pH=7). Whole blood was collected and prepared to obtain plasma. Drug concentration was analyzed by LC-MS/MS method, and pharmacokinetic parameters were calculated by Phoenix WinNonlin software.

[3] = Pharmacokinetic evaluation in SD rats; format: in vivo; conditions: rat, plasma, 0.048 mg/kg, single SC 0.048 mpk
Description: To test the pharmacokinetics of compounds in SD rats in vivo
The pharmacokinetic characteristics of the compounds in rodents after subcutaneous injection were tested according to the standard protocol. In the experiment, the candidate compounds were formulated into clear solutions, and a single subcutaneous injection (SC, 0.048 mpk) was given to the rats. The injection vehicle was citrate buffer (20 mM, pH=7). Whole blood was collected and prepared to obtain plasma. Drug concentration was analyzed by LC-MS/MS method, and pharmacokinetic parameters were calculated by Phoenix WinNonlin software.

GLP-1R = biological target: T1, GLP-1R (Homo sapiens, UniProt P43220); assay: GLP-1R agonist activity test in vitro (cAMP assay); format: cell-based; conditions: HEK293 host cell
T1 construct: host or cells: HEK293
Description: The cell strains were constructed by Shanghai WuXi AppTec.
The test compound was serially diluted 4-fold with 10 points. The initial concentration was 30 μM, and the dilution was completed with Bravo.
1) 100 nL of the compound was transferred to OptiPlate-384 plate using Echo.
7) The GLP-1R/GIPR cell concentration was diluted to 2.0*10^5/mL with the experimental buffer.
8) […] of the diluted cell suspension was transferred into the OptiPlate-384 plate.
9) The diluted cell suspension was incubated at room temperature for 30 minutes.
2) 10 μL of cAMP detection reagent was added.
3) The OptiPlate-384 plate was covered with TopSeal-A film and incubated at room temperature for 60 minutes.
TopSeal-A was removed and read in EnVision.

mouse plasma albumin = assay: Plasma protein binding (PPB) test, mouse; format: in vitro ADME; parameters: key to PPB % unbound (H/M), M: NA means the plasma-protein binding is too high, and no free drug can be detected under a normal concentration of plasma protein; conditions: ultracentrifugation
Description: as §1, §2, §3
3.1 An equal amount of 30 μL of the loading matrix (n=2) was transferred to the sample collection plate to prepare samples of time 0 (TO) for residue determination. The samples were immediately matched to the corresponding blank buffer in a final volume of 60 μL with a 1:1 volume ratio of plasma to buffer in each well. Then, 60 μL of 4% H3PO4 in H2O and 480 μL of stop solution containing an internal standard were then added to the TO samples of the test compounds. They were then stored at 2-8° C. with other samples pending for further processing.
3.2 The remaining plasma samples were pre-incubated in a carbon dioxide incubator at 37±1° C. for 30 min. The prepared protein-free samples (F samples) and loading matrix samples (230 μL) were transferred to polycarbonate tubes (n=2) and ultracentrifuged at 37° C. and 155000×g (35000 rpm) for 4 hours.
3.3 To prepare T samples (test samples), an additional matrix-containing sample was transferred to a separate 96-well plate (sample incubation plate) and incubated at 37° C. for 4 hours.
3.4 After centrifugation, 30 μL of protein-free sample and 30 μL of T sample were transferred from the second layer of supernatant (below the upper layer) to a new sample collection plate. Each sample was mixed with the corresponding blank buffer or matrix in a final volume of 60 μL with a matrix:buffer volume ratio of 1:1. 60 μL of 4% H3PO4 aqueous solution and 480 μL of stop solution (containing internal standard) were added to all samples. The mixture was centrifuged at 4000 rpm for 20 min, and 100 μL of the supernatant of each sample was taken for LC-MS/MS analysis.

T1 sequence (P43220 24-463): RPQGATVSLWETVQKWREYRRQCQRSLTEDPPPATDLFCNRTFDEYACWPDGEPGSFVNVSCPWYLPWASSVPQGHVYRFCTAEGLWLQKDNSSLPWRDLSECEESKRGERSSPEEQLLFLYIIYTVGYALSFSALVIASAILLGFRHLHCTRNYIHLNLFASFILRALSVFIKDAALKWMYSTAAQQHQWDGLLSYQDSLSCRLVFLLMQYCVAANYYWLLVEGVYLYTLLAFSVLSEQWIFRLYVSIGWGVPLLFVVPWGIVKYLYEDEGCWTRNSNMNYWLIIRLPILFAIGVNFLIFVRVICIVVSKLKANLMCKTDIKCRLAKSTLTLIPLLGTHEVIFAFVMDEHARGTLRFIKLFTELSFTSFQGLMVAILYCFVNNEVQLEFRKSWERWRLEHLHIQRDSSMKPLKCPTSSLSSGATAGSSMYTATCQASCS

CC[C@H](C)[C@H](NC(=O)[C@H](CC(C)C)NC(=O)[C@H](Cc1c[nH]c2ccccc12)NC(=O)[C@@H]1CCC(=O)NCCCC[C@H](NC(=O)[C@H](CCC(N)=O)NC(=O)[C@H](C)NC(=O)[C@H](CCCCNC(=O)COCCOCCNC(=O)COCCOCCNC(=O)CC[C@H](NC(=O)CCCCCCCCCCCCCCCCCCC(=O)O)C(=O)O)NC(=O)[C@H](CCCCN)NC(=O)[C@H](CC(=O)O)NC(=O)[C@H](CC(C)C)NC(=O)C(C)(C)NC(=O)[C@@H](NC(=O)[C@H](CO)NC(=O)[C@H](Cc2ccc(O)cc2)NC(=O)[C@H](CC(=O)O)NC(=O)[C@H](CO)NC(=O)[C@@H](NC(=O)[C@H](Cc2ccccc2)NC(=O)[C@@H](NC(=O)CNC(=O)[C@H](CCC(=O)O)NC(=O)C(C)(C)NC(=O)[C@@H](N)Cc2ccc(O)cc2)[C@@H](C)O)[C@@H](C)O)[C@@H](C)CC)C(=O)N[C@@H](C)C(=O)N[C@@H](Cc2ccccc2)C(=O)N[C@@H](C(C)C)C(=O)N1)C(=O)N[C@@H](C)C(=O)NCC(=O)NCC(=O)N1CCC[C@H]1C(=O)N[C@@H](CO)C(=O)N[C@@H](CO)C(=O)NCC(=O)N[C@@H](C)C(=O)N1CCC[C@H]1C(=O)N1CCC[C@H]1C(=O)N1CCC[C@H]1C(=O)N[C@@H](CO)C(N)=O [WX-001] (H-Y[Aib]EGTFTSDYSI[Aib]LDKK([AEEA-AEEA-γGlu-C20 diacid])AQKAFVEWLIAGGPSSGAPPPS-NH2; lactam 20-24)
PPB % unbound (H/M), H (human plasma albumin): NA/NA | half-life [1]: 14 min | half-life ([2]; 0.048 mpk IV/SC, read-out: Half-life T1/2 (converted)): 930 min | clearance ([2]; IV 0.048 mpk): 5.28 mL/h/kg | AUC(0-t) ([2]; SC 0.048 mpk, read-out: SC Concentration Integral AUC0-72 h): 1.55 µM·h | bioavailability ([2]; subcutaneous, SC 0.048 mpk vs IV 0.048 mpk, read-out: Bioavailability F): 85.5% | half-life ([3]; read-out: Half-life T1/2 (converted)): 720 min | Cmax ([3]; read-out: Maximum Plasma Concentration): 22 nM | AUC(0-t) ([3]; read-out: SC Concentration Integral AUC0-72 h): 0.728 µM·h | EC50 (GLP-1R; GLP-IR Agonist Activity EC50 (+) 1% HSA, with 1% HSA): 3.66 nM | EC50 (GLP-1R; GLP-IR Agonist Activity EC50 (−) 1% HSA, without 1% HSA): 0.014 nM | PPB % unbound (H/M), M (mouse plasma albumin): NA/NA
